Measured values as given in ChEMBL document CHEMBL3045378, “Synthesis and evaluation of 4-amino-5-phenyl-4H-[1,2,4]-triazole-3-thiol derivatives as antimicrobial agents” (2010).
In brackets after ≈: the same amount, converted by molar mass.

Columns and labels:
Format in all cases: functional
[1] = test system: Fusarium verticillioides; assay: Antifungal activity against Fusarium verticillioides NCIM 1276 at 5 to 20 ug/ml after 24 hr by paper disk diffusion method
[2] = test system: Trichoderma; assay: Antifungal activity against Trichoderma sp. ATCC 5248 at 5 to 20 ug/ml after 24 hr by paper disk diffusion method
[3] = test system: Saccharomyces cerevisiae; assay: Antifungal activity against Saccharomyces cerevisiae 180 at 5 to 20 ug/ml after 24 hr by paper disk diffusion method
[4] = test system: Aspergillus niger; assay: Antifungal activity against Aspergillus niger ATCC 4578 at 5 to 20 ug/ml after 24 hr by paper disk diffusion method
[5] = test system: Fusarium verticillioides; assay: Antifungal activity against Fusarium verticillioides NCIM 1276 after 24 hr by paper disk diffusion method; conditions: NCIM 1276, 24 h
[6] = test system: Trichoderma; assay: Antifungal activity against Trichoderma sp. ATCC 5248 after 24 hr by paper disk diffusion method; conditions: ATCC 5248, 24 h
[7] = test system: Saccharomyces cerevisiae; assay: Antifungal activity against Saccharomyces cerevisiae 180 after 24 hr by paper disk diffusion method; conditions: Saccharomyces cerevisiae, 180, 24 h
[8] = test system: Aspergillus niger; assay: Antifungal activity against Aspergillus niger ATCC 4578 after 24 hr by paper disk diffusion method; conditions: ATCC 4578, 24 h
[9] = test system: Pseudomonas fluorescens; assay: Antibacterial activity against Pseudomonas fluorescens ATCC 3458 5 to 20 ug/ml after 24 hr by paper disk diffusion method
[10] = test system: Pseudomonas aeruginosa; assay: Antibacterial activity against Pseudomonas aeruginosa MTCC 3363 5 to 20 ug/ml after 24 hr by paper disk diffusion method
[11] = test system: Bacillus subtilis; assay: Antibacterial activity against Bacillus subtilis ATCC 6633 5 to 20 ug/ml after 24 hr by paper disk diffusion method
[12] = test system: Escherichia coli; assay: Antibacterial activity against Escherichia coli DH5[alpha] at 5 to 20 ug/ml after 24 hr by paper disk diffusion method
[13] = test system: Pseudomonas fluorescens; assay: Antibacterial activity against Pseudomonas fluorescens ATCC 3458 after 24 hr by paper disk diffusion method; conditions: ATCC 3458, 24 h
[14] = test system: Pseudomonas aeruginosa; assay: Antibacterial activity against Pseudomonas aeruginosa MTCC 3363 after 24 hr by paper disk diffusion method; conditions: MTCC 3363, 24 h
[15] = test system: Bacillus subtilis; assay: Antibacterial activity against Bacillus subtilis ATCC 6633 after 24 hr by paper disk diffusion method; conditions: ATCC 6633, 24 h
[16] = test system: Escherichia coli; assay: Antibacterial activity against Escherichia coli DH5[alpha] after 24 hr by paper disk diffusion method

MIC [5] [µg/mL]	MIC [6] [µg/mL]	MIC [7] [µg/mL]	MIC [8] [µg/mL]	MIC [13] [µg/mL]	MIC [14] [µg/mL]	MIC [15] [µg/mL]	MIC [16] [µg/mL]	SMILES	diameter of the inhibition zone (DIZ) [1] [mm]	diameter of the inhibition zone (DIZ) [2] [mm]	diameter of the inhibition zone (DIZ) [3] [mm]	diameter of the inhibition zone (DIZ) [4] [mm]	diameter of the inhibition zone (DIZ) [9] [mm]	diameter of the inhibition zone (DIZ) [10] [mm]	diameter of the inhibition zone (DIZ) [11] [mm]	diameter of the inhibition zone (DIZ) [12] [mm]
12.5 (≈ 65 µM)	12.5 (≈ 65 µM)	12.5 (≈ 65 µM)	12.5 (≈ 65 µM)	12.5 (≈ 65 µM)	12.5 (≈ 65 µM)	12.5 (≈ 65 µM)	12.5 (≈ 65 µM)	Nn1c(S)nnc1-c1ccccc1	16	16	16	16	16	16	16	16
10 (≈ 33 µM)	10 (≈ 33 µM)	10 (≈ 33 µM)	10 (≈ 33 µM)	10 (≈ 33 µM)	10 (≈ 33 µM)	10 (≈ 33 µM)	10 (≈ 33 µM)	Nn1c(Sc2ccc(Cl)cc2)nnc1-c1ccccc1	16	16	16	16	16	16	16	16
12.5 (≈ 60 µM)	12.5 (≈ 60 µM)	12.5 (≈ 60 µM)	12.5 (≈ 60 µM)	12.5 (≈ 60 µM)	12.5 (≈ 60 µM)	12.5 (≈ 60 µM)	12.5 (≈ 60 µM)	Nn1c(S)nnc1-c1ccccc1O	16	16	16	16	16	16	16	16
15 (≈ 64 µM)	15 (≈ 64 µM)	15 (≈ 64 µM)	15 (≈ 64 µM)	15 (≈ 64 µM)	15 (≈ 64 µM)	15 (≈ 64 µM)	15 (≈ 64 µM)	CC(=O)Nn1c(S)nnc1-c1ccccc1	<12	<12	<12	<12	<10	<10	<10	<10

More lines, now with the values behind:

SMILES	MIC [5] [µg/mL]	MIC [6] [µg/mL]	MIC [7] [µg/mL]	MIC [8] [µg/mL]	MIC [13] [µg/mL]	MIC [14] [µg/mL]	MIC [15] [µg/mL]	MIC [16] [µg/mL]	diameter of the inhibition zone (DIZ) [1] [mm]	diameter of the inhibition zone (DIZ) [2] [mm]	diameter of the inhibition zone (DIZ) [3] [mm]	diameter of the inhibition zone (DIZ) [4] [mm]	diameter of the inhibition zone (DIZ) [9] [mm]	diameter of the inhibition zone (DIZ) [10] [mm]	diameter of the inhibition zone (DIZ) [11] [mm]	diameter of the inhibition zone (DIZ) [12] [mm]
Nn1c(Sc2ccc(S(=O)(=O)Cl)cc2)nnc1-c1ccccc1	15 (≈ 40.9 µM)	15 (≈ 40.9 µM)	15 (≈ 40.9 µM)	15 (≈ 40.9 µM)	15 (≈ 40.9 µM)	15 (≈ 40.9 µM)	15 (≈ 40.9 µM)	15 (≈ 40.9 µM)	<12	<12	<12	<12	<10	<10	<10	<10
Nn1c(Sc2ccc(Br)cc2)nnc1-c1ccccc1	10 (≈ 28.8 µM)	10 (≈ 28.8 µM)	10 (≈ 28.8 µM)	10 (≈ 28.8 µM)	10 (≈ 28.8 µM)	10 (≈ 28.8 µM)	10 (≈ 28.8 µM)	10 (≈ 28.8 µM)	16	16	16	16	16	16	16	16
Nn1c(Sc2ccc(C(Cl)(Cl)Cl)cc2)nnc1-c1ccccc1	5 (≈ 13 µM)	5 (≈ 13 µM)	5 (≈ 13 µM)	5 (≈ 13 µM)	5 (≈ 13 µM)	5 (≈ 13 µM)	5 (≈ 13 µM)	5 (≈ 13 µM)	18	22	16	14	14	16	14	14
Nn1c(Sc2ccc([N+](=O)[O-])cc2[N+](=O)[O-])nnc1-c1ccccc1	15 (≈ 41.9 µM)	15 (≈ 41.9 µM)	15 (≈ 41.9 µM)	15 (≈ 41.9 µM)	15 (≈ 41.9 µM)	15 (≈ 41.9 µM)	15 (≈ 41.9 µM)	15 (≈ 41.9 µM)	<12	<12	<12	<12	<10	<10	<10	<10
CO/N=C(\C(=O)N[C@@H]1C(=O)N2C(C(=O)O)=C(CSc3nc(=O)c(O)nn3C)CS[C@H]12)c1csc(N)n1 [CEFTRIAXONE]	–	–	–	–	5 (≈ 9.02 µM)	5 (≈ 9.02 µM)	5 (≈ 9.02 µM)	5 (≈ 9.02 µM)	–	–	–	–	16	18	16	16
CC(=O)N1CCN(c2ccc(OCC3COC(Cn4ccnc4)(c4ccc(Cl)cc4Cl)O3)cc2)CC1 (centres undefined) [KETOCONAZOLE]	5 (≈ 9.41 µM)	5 (≈ 9.41 µM)	5 (≈ 9.41 µM)	5 (≈ 9.41 µM)	–	–	–	–	20	25	18	16	–	–	–	–
